Assay results as given in a melting point compilation (Tetko et al.; mined from patent text by program, amines drawn as free bases though some values may be those of a salt).

| melting point | Structure (SMILES) |
| --- | --- |
| 98 to 99 °C | CC(C)(CCCC(C(O)C(C)(C)C)n1cncn1)c1ccccc1 (stereo not drawn) |
| 238 to 239 °C | OCc1cc(Nc2nc(-c3ccccc3)nc3ccccc23)[nH]n1 |
| 64.6 to 67.6 °C | Oc1ccc2nc(SCCC(F)C(F)(F)Br)oc2c1 (stereo not drawn) |
| 78 to 82 °C | CC(CC(=O)NC(C)(C)C#CCl)Oc1cncc(Cl)c1 (stereo not drawn) |
| 111 to 113 °C | CCNS(=O)(=O)c1cccc(OCc2nc3ccccc3s2)c1 |
| 84 to 85 °C | OCc1ccc(OCc2ccccc2)cc1OCc1ccccc1 |
| 229 °C | Cc1cc(C)c2nc(NCCC(N)=O)n(Cc3nc(C)ccc3O)c2c1 |
| 143 to 144 °C | CCCCOC(=O)NCCc1nc(-c2ccc(-c3ccccc3)cc2)c(C)[nH]1 |
| 129 to 130 °C | COC1(c2cccc(OCc3ccc(-n4ccnc4)cc3)c2)CCOCC1 |
| 76 to 79 °C | CCCCCCCCCCCCCCCCCC(=O)Nc1cccc(C(=O)N(CC(=O)OCC)CC(=O)OCC)c1 |
| 167 to 169 °C | CC(C)[C@H](NC(=O)c1ccccc1)C(=O)NCC(=O)N[C@@H](CCCNC(=N)N)C(=O)Nc1ccc2ncccc2c1 |
| 304 °C | COc1cc(C2=C(c3c(-c4ccccc4)[nH]c4ccccc34)C(=O)NC2=O)cc(OC)c1OC |
| 102 to 104 °C | C[C@H](NC(=O)Cc1ccccc1)C(=O)O |
| 164 to 167 °C | CCCn1c(COCC)nc2c(N)nc3ccc(OCCCCCCNS(C)(=O)=O)cc3c21 |
| 108 to 111 °C | COc1ccc(-c2ccc(COc3cccc4cc(NS(=O)(=O)C(F)(F)F)ccc34)c(F)c2)cc1 |

More lines, now with the values behind:

| Structure (SMILES) | melting point |
| --- | --- |
| O=C(O)CCC(=O)c1ccc(N2CCCCC2)cc1 | 150 to 151 °C |
| O=C(O)c1cccc([N+](=O)[O-])c1NCc1ccccc1Cl | 164 °C |
| Clc1ccc(C(c2ccc(Cl)cc2)n2ncnn2)cc1 | 91 to 92 °C |
| N#Cc1ccc(NCC(=O)Nc2c(Cl)ccc3nc(N4CC[C@@H](O)C4)ccc23)cc1 | 230 to 233 °C |
| BrC1Cn2cccc2Sc2ccccc21 (stereo not drawn) | 115 to 116 °C |
| CCOc1cc(C2COCCC2NC(=O)c2ccc(C(=O)N(C(C)C)C(C)C)cc2)ccc1OC (stereo not drawn) | 166 to 168 °C |
| Cc1c(CN(C)CCc2ccc(NS(C)(=O)=O)cc2)oc2ccc([N+](=O)[O-])cc12 | 124 °C |
| CC(C)(C)Sc1ccc(Cn2c(CC(C)(C)C(=O)O)c(SC(C)(C)C)c3cc(OCc4ccc5ccccc5n4)ccc32)cc1 | 172 to 173 °C |
| O=C(Cc1ccc(Br)cc1)c1ccc(Cl)cc1 | 123 °C |
| Fc1cc(/C=C/c2nc(COc3ccc(CCCCn4ccnn4)cc3)co2)ccc1Cl | 146 to 149 °C |
| c1ccc2c(c1)nc1n2CCCO1 | 116 to 118 °C |
| CCCCCCCNC(=O)c1ccc(CCCC)cc1 | 37 to 38 °C |
| CNC(C)CN1CCc2c(c(=O)oc3cc(OC)ccc23)C1 (stereo not drawn) | 109 to 111 °C |
| CCOC(=O)c1ccc(NC(=O)c2ccc3c(c2)CCC(C)(C)C(=O)N3C)cc1 | 169 to 170 °C |
| Cc1cc(C)c2ncc(Br)n2n1 | 137 to 139 °C |
| CCOC(=O)Cn1c2c(c3cc(Cl)c(Cl)cc31)CCN(C(=O)OC(C)(C)C)CC2 | 138 to 140 °C |
| c1ccc(COc2ccc(Cc3nnc(Nc4ccc5c(c4)ncn5-c4ccccc4)c4ccccc34)cc2)cc1 | 229 to 231 °C |
| O=C1[C@H]2CCC[C@H]2N(C(=O)Cn2ccnc2)c2ccccc2N1Cc1ccccc1 (relative stereo) | 183 to 184 °C |
| Fc1cccc2c(NCCc3ccc4ccccc4c3)ccnc12 | 173 to 174 °C |
| O=C(N[C@@H](Cc1c[nH]c2ccccc12)C(=O)O)C(CS)C(F)(F)F (stereo partly drawn) | 144 to 147 °C |
| CC(=O)Oc1ccc2c(c1)Oc1ccccc1C2=C1C2CC3CC(C2)CC1C3 | 162 to 163 °C |
| CCCn1c(-c2ccc(-n3ccnc3)cc2)cnc1[C@H](Cc1ccccn1)N(C=O)c1cc2cc(C(F)(F)F)ccc2o1 | 92 to 98 °C |
| CNc1nc(N)nc2c1ncn2C1C=CC(CO)C1 (stereo not drawn) | 221 to 223 °C |
